Experimental data as given in PMC9095466 (Nature, 2022).
Where “and” joins values, the source holds several entries; their conditions need not be identical. Identical values can stand only once. Like-named read-outs stand apart in the source and are kept apart here.

How the values were obtained:
[1] = target: human TMPRSS2 (Homo sapiens, UniProt O15393); assay: cell-based; conditions: for TMPRSS2 relative activity: technical duplicates; for inhibition at 0.01 µM: Vero C1008, 10 nM compound, 24 h, vs untreated/vehicle TMPRSS2-expressing Vero E6 cells, read-out: inhibition of TMPRSS2 activity (reduction of substrate proteolysis)
[2] = target: T1, Recombinant human matriptase (Homo sapiens, UniProt Q9Y5Y6); assay: Protease selectivity, Ki on recombinant protease; assay type: biochemical; conditions: mean ± s.d., max concentration 10 µM; read-out: Ki Matriptase
T1 construct: made in house
T1 sequence (Q9Y5Y6 1-855): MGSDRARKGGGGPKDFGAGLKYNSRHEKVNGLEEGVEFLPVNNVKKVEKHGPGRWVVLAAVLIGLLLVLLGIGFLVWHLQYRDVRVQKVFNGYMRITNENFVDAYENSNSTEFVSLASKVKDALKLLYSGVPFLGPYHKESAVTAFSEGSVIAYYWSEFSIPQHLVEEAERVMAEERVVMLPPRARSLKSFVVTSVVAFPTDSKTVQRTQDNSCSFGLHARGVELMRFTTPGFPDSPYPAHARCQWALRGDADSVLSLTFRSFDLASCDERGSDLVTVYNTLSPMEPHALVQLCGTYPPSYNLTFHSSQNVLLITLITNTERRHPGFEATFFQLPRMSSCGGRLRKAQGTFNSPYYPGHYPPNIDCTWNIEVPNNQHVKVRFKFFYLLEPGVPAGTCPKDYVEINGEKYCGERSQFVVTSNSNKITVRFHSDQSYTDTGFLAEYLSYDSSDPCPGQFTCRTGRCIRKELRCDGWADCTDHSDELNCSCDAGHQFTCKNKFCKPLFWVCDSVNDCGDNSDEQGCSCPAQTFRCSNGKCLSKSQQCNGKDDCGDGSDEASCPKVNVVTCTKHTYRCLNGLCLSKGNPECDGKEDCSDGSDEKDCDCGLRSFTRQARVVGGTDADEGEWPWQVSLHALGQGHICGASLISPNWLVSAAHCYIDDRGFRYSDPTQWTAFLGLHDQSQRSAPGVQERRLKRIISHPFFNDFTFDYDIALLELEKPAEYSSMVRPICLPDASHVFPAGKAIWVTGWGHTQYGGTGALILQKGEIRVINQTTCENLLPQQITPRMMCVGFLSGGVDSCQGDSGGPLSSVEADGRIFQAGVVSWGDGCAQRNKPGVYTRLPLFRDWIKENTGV

[3] = target: T2, Recombinant human hepsin (Homo sapiens, UniProt P05981); assay: Protease selectivity, Ki on recombinant protease; assay type: biochemical; conditions: mean ± s.d., max concentration 10 µM; read-out: Ki Hepsin
T2 construct: made in house

[4] = target: T3, Recombinant human DESC1 (Homo sapiens, UniProt Q9UL52); assay: Protease selectivity, Ki on recombinant protease; assay type: biochemical; conditions: mean ± s.d., max concentration 10 µM; read-out: Ki DESC1
T3 construct: made in house
T3 sequence (Q9UL52 1-423): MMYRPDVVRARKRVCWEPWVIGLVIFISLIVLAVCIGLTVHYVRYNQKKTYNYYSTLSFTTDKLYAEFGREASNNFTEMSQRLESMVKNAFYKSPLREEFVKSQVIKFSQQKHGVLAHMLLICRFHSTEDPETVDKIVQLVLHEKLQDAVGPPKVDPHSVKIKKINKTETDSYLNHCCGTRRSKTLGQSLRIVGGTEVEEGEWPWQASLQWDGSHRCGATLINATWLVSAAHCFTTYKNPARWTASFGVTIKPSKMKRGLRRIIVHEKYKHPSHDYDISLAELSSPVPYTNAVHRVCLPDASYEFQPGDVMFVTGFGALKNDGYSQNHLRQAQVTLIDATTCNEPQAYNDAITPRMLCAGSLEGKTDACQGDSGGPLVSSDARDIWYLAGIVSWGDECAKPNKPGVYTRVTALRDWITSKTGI

[5] = target: T4, human thrombin (Homo sapiens, UniProt P00734); assay: Protease selectivity, Ki on protease; assay type: biochemical; conditions: mean ± s.d., max concentration 10 µM; read-out: Ki Thrombin
T4 construct: purchased MilliporeSigma

[6] = target: T5, Recombinant human furin (Homo sapiens, UniProt P09958); assay: Protease selectivity, Ki on recombinant protease; assay type: biochemical; conditions: mean ± s.d., max concentration 10 µM; read-out: Ki Furin
T5 construct: purchased Bio-Techne

[7] = target: T6, human cathepsin L (Homo sapiens, UniProt P07711); assay: Protease selectivity, Ki on protease; assay type: biochemical; conditions: mean ± s.d., max concentration 10 µM; read-out: Ki Cathepsin L
T6 construct: purchased Bio-Techne

[8] = system: SARS-CoV-2 lineage B strain (VIDO); assay: microbe, parasite or virus in culture; assay type: cell-based; conditions: for Nucleocapsid / dsRNA: Figure 2a, two replicates; for Nucleocapsid: DMSO control about 91-94; for dsRNA: DMSO control about 93-95; for EC50 / inhibition at 0.1 µM: Severe acute respiratory syndrome coronavirus 2, Calu-3; for EC50: read-out: SARS-CoV-2 VIDO Nucleocapsid EC50 ± SE; for inhibition at 0.1 µM: read-out: inhibition of SARS-CoV-2 infection
[9] = Cytotoxicity CC50 in Calu-3 lung epithelial cells; assay type: cell-based, human; conditions: human, Calu-3 cells; for viability at 24 h, 3000 µM: Log [inhibitor] -2.52; for viability at 24 h, 1000 µM: Log [inhibitor] -3.00; for viability at 24 h, 300 µM: Log [inhibitor] -3.52; for viability at 24 h, 100 µM: Log [inhibitor] -4.00; for viability at 24 h, 30 µM: Log [inhibitor] -4.52; for viability at 24 h, 10 µM: Log [inhibitor] -5.00; for viability at 24 h, 3 µM: Log [inhibitor] -5.52; for viability at 24 h, 0.3 µM: Log [inhibitor] -6.52; for viability at 24 h, 0.03 µM: Log [inhibitor] -7.52; for viability at 24 h, 0.003 µM: Log [inhibitor] -8.52; for CC50 at 24 h: unit not given for CC50, read-out: CC50
[10] = system: Calu-3 cells; assay: Cytotoxicity CC50 in Calu-3 lung epithelial cells; assay type: cell-based, human; conditions: single replicates
[11] = TMPRSS2, mean of independent experiments, Figure 1C, read-out: IC50 Mean
[12] = Vero E6 cells expressing human TMPRSS2, 24 h with fluorogenic substrate, read-out: TMPRSS2 IC50 ± SD
[13] = read-out: % of Viability, Average (n=2)
[14] = single replicates, read-out: % of Viability

Chain of human TMPRSS2 (O15393 whole entry): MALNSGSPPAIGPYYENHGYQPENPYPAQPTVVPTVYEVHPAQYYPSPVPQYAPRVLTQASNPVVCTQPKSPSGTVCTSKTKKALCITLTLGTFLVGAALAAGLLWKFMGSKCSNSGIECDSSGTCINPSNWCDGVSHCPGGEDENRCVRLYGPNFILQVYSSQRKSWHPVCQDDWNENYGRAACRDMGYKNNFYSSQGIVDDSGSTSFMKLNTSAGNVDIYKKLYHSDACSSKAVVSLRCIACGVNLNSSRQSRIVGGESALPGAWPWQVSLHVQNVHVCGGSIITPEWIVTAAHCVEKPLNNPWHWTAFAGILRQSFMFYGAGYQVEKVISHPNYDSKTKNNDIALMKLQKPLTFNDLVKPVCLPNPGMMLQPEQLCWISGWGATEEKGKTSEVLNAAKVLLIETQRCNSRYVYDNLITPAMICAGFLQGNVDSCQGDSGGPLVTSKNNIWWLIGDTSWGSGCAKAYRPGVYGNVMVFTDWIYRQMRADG
T6 sequence (P07711 114-333): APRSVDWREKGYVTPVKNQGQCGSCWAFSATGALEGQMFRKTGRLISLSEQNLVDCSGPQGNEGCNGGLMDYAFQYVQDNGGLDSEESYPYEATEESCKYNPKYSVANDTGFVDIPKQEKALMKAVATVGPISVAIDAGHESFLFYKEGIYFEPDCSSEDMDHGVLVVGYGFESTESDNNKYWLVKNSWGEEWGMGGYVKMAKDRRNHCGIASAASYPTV
T5 sequence (P09958 108-794): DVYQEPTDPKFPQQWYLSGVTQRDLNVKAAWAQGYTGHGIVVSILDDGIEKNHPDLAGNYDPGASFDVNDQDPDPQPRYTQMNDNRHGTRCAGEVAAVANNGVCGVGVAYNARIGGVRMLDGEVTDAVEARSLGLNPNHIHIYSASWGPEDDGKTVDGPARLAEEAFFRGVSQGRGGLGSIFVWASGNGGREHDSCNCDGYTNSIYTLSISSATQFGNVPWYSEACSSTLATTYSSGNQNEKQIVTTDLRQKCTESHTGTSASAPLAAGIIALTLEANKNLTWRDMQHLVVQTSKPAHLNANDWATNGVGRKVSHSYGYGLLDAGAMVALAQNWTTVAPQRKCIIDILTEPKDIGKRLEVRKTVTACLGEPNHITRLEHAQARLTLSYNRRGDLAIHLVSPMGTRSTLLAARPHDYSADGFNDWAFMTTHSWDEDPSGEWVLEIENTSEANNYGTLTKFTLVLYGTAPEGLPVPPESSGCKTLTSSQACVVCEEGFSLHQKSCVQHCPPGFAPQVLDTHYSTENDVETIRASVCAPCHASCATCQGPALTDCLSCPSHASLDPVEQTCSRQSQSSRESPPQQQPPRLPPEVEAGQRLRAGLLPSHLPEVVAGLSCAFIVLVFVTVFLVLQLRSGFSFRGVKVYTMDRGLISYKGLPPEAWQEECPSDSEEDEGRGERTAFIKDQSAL
T2 sequence (P05981 whole entry): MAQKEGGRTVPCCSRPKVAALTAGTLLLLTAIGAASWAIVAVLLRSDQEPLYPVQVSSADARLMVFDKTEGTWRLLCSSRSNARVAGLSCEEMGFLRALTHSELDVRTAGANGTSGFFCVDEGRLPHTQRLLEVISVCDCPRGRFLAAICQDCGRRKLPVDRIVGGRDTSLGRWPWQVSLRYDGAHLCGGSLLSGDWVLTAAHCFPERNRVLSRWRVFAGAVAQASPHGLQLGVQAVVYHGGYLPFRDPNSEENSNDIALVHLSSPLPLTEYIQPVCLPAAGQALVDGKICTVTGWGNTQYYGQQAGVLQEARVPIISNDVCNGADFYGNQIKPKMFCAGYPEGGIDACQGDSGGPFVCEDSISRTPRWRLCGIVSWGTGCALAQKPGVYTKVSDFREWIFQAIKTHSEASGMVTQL

N=C(N)NCCCCC(=O)NC(CCC(N)=O)C(=O)NC(Cc1ccccc1)C(=O)NC(CCCNC(=N)N)C(=O)c1nc2ccccc2s1 (stereo not drawn) [Compound N-0130, (H)RQFR-kbt]
TMPRSS2 relative activity ([1]; 1.00E-06 M): 5.317 and 4.665
TMPRSS2 relative activity ([1]; 1.00E-07 M): 0.9344 and 1.227
TMPRSS2 relative activity ([1]; 2.00E-08 M): 26.2346 and 28.2385
TMPRSS2 relative activity ([1]; 3.20E-11 M): 95.7258 and 93.264
TMPRSS2 relative activity ([1]; 4.00E-09 M): 48.3901 and 50.7993
TMPRSS2 relative activity ([1]; 8.00E-10 M): 84.4379 and 85.0608
TMPRSS2 activity (%) ([1]; Figure 1B, single experiments N1-N3): 32.9396% and 22.7789% and 30.45%
IC50 [1, 11]: 0.0031 µM
IC50 ([1]; TMPRSS2, single experiments, Figure 1C, read-out: IC50 determined from independant experiments): 0.00174 µM and 0.00287 µM and 0.0047 µM
inhibition at 0.01 µM [1]: 72%
IC50 [1, 12]: 0.0031 ± 0.0015 µM
Ki [2]: 0.00013 ± 3e-05 µM
Ki [3]: 0.00038 ± 0.00019 µM
Ki [4]: 0.028 ± 0.01 µM
Ki [5]: 8.23 ± 1.55 µM
Ki [6]: > 10 µM
Ki [7]: > 10 µM
Nucleocapsid [8]: 2.419 and 11.8709
dsRNA [8]: 3.583 and 18.343
EC50 [8]: 0.0301 ± 0.0301 µM
inhibition at 0.1 µM [8]: > 93%
Figure 2b dose-response, Mean ([8]; log [C] (nM) 0.20412): 93.6494
Figure 2b dose-response, Mean ([8]; log [C] (nM) 0.90309): 82.4234
Figure 2b dose-response, Mean ([8]; log [C] (nM) 1.60206): 39.6362
Figure 2b dose-response, Mean ([8]; log [C] (nM) 2.30103): 5.2153
Figure 2b dose-response, Mean ([8]; log [C] (nM) 3): 0.8023
Figure 2b dose-response, Mean ([8]; log [C] (nM) -0.49485): 100
Figure 2b dose-response, Mean ([8]; log [C] (nM) -1.19382): 97.2147
viability at 24 h, 3000 µM [9, 13]: 44.5%
viability at 24 h, 3000 µM [9, 14]: 42%
viability at 24 h, 1000 µM [9, 13]: 86.5%
viability at 24 h, 1000 µM [9, 14]: 84%
viability at 24 h, 300 µM [9, 13]: 90.5%
viability at 24 h, 300 µM [9, 14]: 90%
viability at 24 h, 100 µM [9, 13]: 91%
viability at 24 h, 100 µM [9, 14]: 88%
viability at 24 h, 30 µM [9, 13]: 96.5%
viability at 24 h, 30 µM [9, 14]: 98%
viability at 24 h, 10 µM [9, 13]: 95%
viability at 24 h, 10 µM [9, 14]: 98%
viability at 24 h, 3 µM [9, 13]: 100%
viability at 24 h, 3 µM [9, 14]: 99%
viability at 24 h, 0.3 µM [9, 13]: 106%
viability at 24 h, 0.3 µM [9, 14]: 103%
viability at 24 h, 0.03 µM [9, 13]: 101%
viability at 24 h, 0.03 µM [9, 14]: 99%
viability at 24 h, 0.003 µM [9, 13]: 104%
viability at 24 h, 0.003 µM [9, 14]: 101%
CC50 at 24 h [9]: 2680 µM
% of Viability ([10]; Log [inhibitor] -2.52): 47%
% of Viability ([10]; Log [inhibitor] -3.00): 89%
% of Viability ([10]; Log [inhibitor] -4.00): 94%
% of Viability ([10]; Log [inhibitor] -5.00): 92%
% of Viability ([10]; Log [inhibitor] -6.52): 108%
% of Viability ([10]; Log [inhibitor] -8.52): 107%

N=C(N)NCCCCC(=O)N[C@@H](CCC(=O)O)C(=O)N[C@@H](Cc1ccccc1)C(=O)N[C@@H](CCCNC(=N)N)C(=O)c1nc2ccccc2s1 [Compound N-0438, (H)REFR-kbt]
TMPRSS2 relative activity ([1]; 1.60E-10 M): 86.6686 and 86.7823
TMPRSS2 relative activity ([1]; 2.00E-08 M): 4.266 and 6.221
TMPRSS2 relative activity ([1]; 3.20E-11 M): 102.504 and 103.881
TMPRSS2 relative activity ([1]; 4.00E-09 M): 35.2539 and 37.178
TMPRSS2 relative activity ([1]; 8.00E-10 M): 70.1907 and 73.6892
IC50 [1, 11]: 0.00517 µM
inhibition at 0.01 µM [1]: 84%
IC50 [1, 12]: 0.0052 ± 0.0054 µM
Ki [2]: 0.00111 ± 9e-05 µM
Ki [3]: 0.00052 ± 7e-05 µM
Ki [4]: 0.031 ± 0.003 µM
Ki [5]: > 10 µM
Ki [6]: > 10 µM
Ki [7]: > 10 µM
Nucleocapsid [8]: 4.61 and 18.8861
dsRNA [8]: 14.5614 and 27.1131
EC50 [8]: 0.0357 ± 0.0245 µM
inhibition at 0.1 µM [8]: > 88%
Figure 2b dose-response, Mean ([8]; log [C] (nM) 0.20412): 87.8313
Figure 2b dose-response, Mean ([8]; log [C] (nM) 0.90309): 62.8653
Figure 2b dose-response, Mean ([8]; log [C] (nM) 1.60206): 44.3084
Figure 2b dose-response, Mean ([8]; log [C] (nM) 2.30103): 28.0955
Figure 2b dose-response, Mean ([8]; log [C] (nM) 3): 3.627
Figure 2b dose-response, Mean ([8]; log [C] (nM) -0.49485): 89.252
Figure 2b dose-response, Mean ([8]; log [C] (nM) -1.19382): 94.5427
viability at 24 h, 3000 µM [9, 13]: 25.5%
viability at 24 h, 300 µM [9, 13]: 87.5%
viability at 24 h, 300 µM [9, 14]: 86%
viability at 24 h, 100 µM [9, 13]: 86%
viability at 24 h, 100 µM [9, 14]: 81%
viability at 24 h, 30 µM [9, 13]: 89%
viability at 24 h, 30 µM [9, 14]: 89%
viability at 24 h, 10 µM [9, 13]: 89%
viability at 24 h, 10 µM [9, 14]: 93%
viability at 24 h, 3 µM [9, 13]: 99%
viability at 24 h, 3 µM [9, 14]: 101%
viability at 24 h, 0.3 µM [9, 13]: 108%
viability at 24 h, 0.3 µM [9, 14]: 111%
viability at 24 h, 0.03 µM [9, 13]: 103%
viability at 24 h, 0.03 µM [9, 14]: 107%
viability at 24 h, 0.003 µM [9, 13]: 104%
viability at 24 h, 0.003 µM [9, 14]: 109%
CC50 at 24 h [9]: 980 µM
% of Viability ([10]; Log [inhibitor] -2.52): 12% and 39%
% of Viability ([10]; Log [inhibitor] -4.00): 91%
% of Viability ([10]; Log [inhibitor] -5.00): 85%
% of Viability ([10]; Log [inhibitor] -5.52): 97%
